Assay results as given in patent US10059695B2, “Cot modulators and methods of use thereof” (Gilead Sciences, Inc., priority 2016, dated 2018).

Experiments:
Human Cot = Human Cot (Homo sapiens (Human), UniProt P41279); assay: High Throughput Cot Biochemical Assay (KinEASE TR-FRET); conditions: recombinant human Cot catalytic domain, 400 μM ATP
Procedure: Example 24: High Throughput Cot Biochemical Assay
Human Cot enzyme activity was measured using KinEASE (Cisbio), a time-resolved fluorescence resonance energy transfer (TR-FRET) immunoassay. In this assay, Cot-catalyzes the phosporylation of a XL665-labeled peptide substrate. Europium conjugated […] specific antibody binds the resulting phosphorylated peptide. Formation of phosphorylated peptide is quantified by TR-FRET with Europium as the donor and XL665 the acceptor in a 2-step endpoint assay. Purified recombinant human Cot catalytic domain (30-397 amino acids) was purchased from Carna Biosciences. In brief, test compounds serially diluted in DMSO were delivered into Proxy white, low volume, 384 well plates using the Echo 550 acoustic liquid dispenser (Labcyte®). Cot enzyme and substrates were dispensed into assay plates using a Multi-Flo (Bio-Tek Instruments). The standard 5 μL reaction mixture contained 400 μM ATP, 1 μM STK3 peptide, 5 nM of Cot in reaction buffer (10 mM MOPS, pH 7.0, 0.02% NaN3, 0.5 mg/mL BSA, 10 mM MgOAc, 1 mM DTT, 0.025% NP-40, 1.5% glycerol) and 0.1% DMSO. After 2.5 hrs of incubation at room temperature, 5 μL of Stop and Detect Solution (1:200 Europium Cryptate labeled anti-phosphorylated peptide antibody solution and 125 nM strepavidin-XL665 Tracer in a 50 mM Hepes pH 7.0 detection buffer containing sufficient EDTA) was added. The plate was then further incubated for 120 minutes at room temperature and read using an Envision 2103 Multilabeled reader (PerkinElmer) with excitation/emission/FRET emission at 340 nm/615 nm/665 nm, respectively. Fluorescence intensities at 615 nm and 665 nm emission wavelengths were expressed as a ratio (665 nm/615 nm).

TNFα = assay: Cot Monocyte TNFα Cell Based Assay; conditions: LPS-stimulated cryopreserved human monocytes, TNFα by TR-FRET
Procedure: Example 23: Cot Monocyte TNFα Cell Based Assay
Cryopreserved human monocytes (Stem Cell Technologies) were thawed, diluted in RPMI with Glutamax (10 mM HEPES, 1× Pen-Strep, 55 μM β-mercaptoethanol, 1 mM Sodium pyruvate) media containing 10% FBS to 0.125×10^6 cells/ml and recovered at 37° C. for 2 hours. The cell suspension was then plated at a density of 5,000 cells/well onto black 384 well Greiner clear bottom plates. Plates were pre-spotted with test compounds and serially diluted in DMSO where 200 nL/well were delivered using the Echo 550 acoustic liquid dispenser (Labcyte®) for a final DMSO concentration of 0.5%. Plated cells were treated with compound for 1 hour at 37° C. Cells were then stimulated with 50 μg/ml of LPS (Sigma) excluding outside columns of plate used for unstimulated cell control wells. Cells were incubated for an additional 4 hours at 37° C. Cells were then spun out of the media and 5 μl of sample were taken and analyzed for total TNFα content using the TR-FRET Human TNFα detection system (CisBio). This system utilizes two labeled antibodies (cryptate and XL665) that bind to two different epitopes of the TNFα molecule and produce FRET signal proportional to the concentration of TNFα in the sample. Detection antibodies are mixed 50:50 and 5 μL were dispensed into each well. Plates were covered with clear seals and incubated at room temp overnight. The following morning plates were read using an Envision 2103 Multilabeled reader (PerkinElmer) with excitation/emission/FRET emission at 340 nm/615 nm/665 nm, respectively. Fluorescence intensities at 615 nm and 665 nm emission wavelengths were expressed as a ratio (665 nm/615 nm). Percent of control was calculated as follows: % Control=100×(RatioSample−Ratio0% stimulation)/(Ratio100% Stimulation−Ratio0% Stimulation) where unstimulated cells (0% stimulation) were the negative control and stimulated cells (100% stimulation) were used as the positive control.

Chain of Human Cot (P41279 30-397): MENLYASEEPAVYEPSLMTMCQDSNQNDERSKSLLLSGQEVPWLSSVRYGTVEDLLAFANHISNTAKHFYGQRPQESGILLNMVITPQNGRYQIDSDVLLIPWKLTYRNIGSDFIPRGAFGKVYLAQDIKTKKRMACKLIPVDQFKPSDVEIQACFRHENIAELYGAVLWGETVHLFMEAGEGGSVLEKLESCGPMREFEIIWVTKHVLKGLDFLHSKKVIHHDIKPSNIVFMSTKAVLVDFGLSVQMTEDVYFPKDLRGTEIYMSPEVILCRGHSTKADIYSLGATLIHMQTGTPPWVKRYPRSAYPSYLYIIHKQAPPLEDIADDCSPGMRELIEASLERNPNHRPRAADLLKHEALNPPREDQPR

Compound	IC50 (Human Cot) [nM]	EC50 (TNFα) [nM]
[2H][C@@](Nc1cc(Cl)c2ncnc(NCC(C)(C)C)c2c1)(c1cn(C2CC2)nn1)c1ccccc1Cl [I-9, (S)-8-chloro-N6-((2-chlorophenyl)(1-cyclopropyl-1H-1,2,3-triazol-4-yl)methyl-d)-N4-neopentylquinazoline-4,6-diamine]	4.8	86
[2H][C@@](Nc1cc(C#N)c2ncnc(NCC(C)(C)C)c2c1)(c1cn(C2CC2)nn1)c1ccccc1Cl [I-19, (S)-6-(((2-chlorophenyl)(1-cyclopropyl-1H-1,2,3-triazol-4-yl)methyl-d)amino)-4-(neopentylamino) quinazoline-8-carbonitrile]	2.4	20
Cc1nc(F)ccc1[C@H](Nc1cc(Cl)c2ncnc(NCC(C)(C)C)c2c1)c1cn(C2(C(F)F)CC2)nn1 [I-21, (S)-8-chloro-N^6-((1-(1-(difluoromethyl)cyclopropyl)-1H-1,2,3-triazol-4-yl)(6-fluoro-2-melhylpyridin-3-yl)methyl)-N^4-neopentylquinazoline-4,6-diamine]	1.9	28
[2H][C@](Nc1cc(Br)c2ncnc(NCC(C)(C)C)c2c1)(c1ccc(F)cc1)c1cn(C2CC2)nn1 [I-15, (S)-8-bromo-N6-((1-cyclopropyl-1H-1,2,3-triazol-4-yl)(4-fluorophenyl)methyl-d)-N4-neopentylquinazoline-4,6-diamine]	2.6	82
[2H][C@@](Nc1cc(Cl)c2ncnc(NCC(C)(C)C)c2c1)(c1cn(CC(=O)O)nn1)c1ccccc1Cl [I-10, (S)-2-(4-(((8-chloro-4-(neopentylamino)quinazolin-6-yl)amino)(2-chlorophenyl)methyl-d)-1H-1,2,3-triazol-1-yl)acetic acid]	13	> 1000
Cn1ccc2c([C@H](Nc3cc(Cl)c4ncnc(NCC(C)(C)C)c4c3)c3cn(C4(C(F)F)CC4)nn3)cccc2c1=O [I-25, (S)-5-(((8-chloro-4-(neopentylamino)quinazolin-6-yl)amino)(1-(1-(difluoromethyl)cyclopropyl)-1H-1,2,3-triazol-4-yl)methyl)-2-methylisoquinolin-1(2H)-one]	2.4	25.5
[2H][C@](Nc1cc(C#N)c2ncnc(NCC(C)(C)C)c2c1)(c1ccc(F)cc1)c1cn(C2CC2)nn1 [I-14, (S)-6-(((1-cyclopropyl-1H-1,2,3-triazol-4-yl)(4-fluorophenyl)methyl-d)amino)-4-(neopentylamino) quinazoline-8-carbonitrile]	2.1	42
[2H][C@](Nc1ccc2ncnc(NCC(C)(C)C)c2c1)(c1cccc(C#N)c1)c1cn(C2CC2)nn1 [I-7, (S)-3-((1-cyclopropyl-1H-1,2,3-triazol-4-yl)((4-(neopentylamino)quinazolin-6-yl)amino)methyl-d)benzonitrile]	2.6	102
[2H][C@](Nc1ccc2ncnc(N[C@H](CC)c3ccccc3)c2c1)(c1ccc(F)cc1)c1cn(C2CC2)nn1 [I-4, N^6-((S)-(1-cyclopropyl-1H-1,2,3-triazol-4-yl)(4-fluorophenyl)methyl-d)-N^4-((R)-1-phenylpropyl) quinazoline-4,6-diamine]	43	796
[2H]C(Nc1ccc2ncnc(NC(CC#N)c3ccccc3)c2c1)(c1ccc(F)cc1)c1cn(C2CC2)nn1 [I-5, 3-((6-(((S)-(1-cyclopropyl-1H-1,2,3-triazol-4-yl)(4-fluorophenyl)methyl-d)amino)quinazolin-4-yl)amino)-3-phenylpropanenitrile]	53	2500
Cn1ccc2c([C@H](Nc3cc(C#N)c4ncnc(NCC(C)(C)C)c4c3)c3cn(C4(C(F)F)CC4)nn3)cccc2c1=O [I-24, (S)-6-(((1-(1-(difluoromethyl)cyclopropyl)-1H-1,2,3-triazol-4-yl)(2-methyl-1-oxo-1,2-dihydroisoquinolin-5-yl)methyl)amino)-4-(neopentylamino) quinazoline-8-carbonitrile]	1.2	11.3
[2H][C@](c1ccc(F)cc1)(c1cn(C2CC2)nn1)N(CC)c1ccc2ncnc(NCC(C)(C)C)c2c1 [I-6, (S)-N6-((1-cyclopropyl-1H-1,2,3-triazol-4-yl)(4-fluorophenyl)methyl-d)-N6-ethyl-N4-neopentylquinazoline-4,6-diamine]	276	4230
Cc1nc(F)ccc1[C@H](Nc1cc(C#N)c2ncnc(NCC(C)(C)C)c2c1)c1cn(C2(C(F)F)CC2)nn1 [I-22, (S)-6-(((1-(1-(difluoromethyl)cyclopropyl)-1H-1,2,3-triazol-4-yl)(6-fluoro-2-methylpyridin-3-yl)methyl)amino)-4-(neopentylamino) quinazoline-8-carbonitrile]	1.7	36
CC(C)(C)CNc1ncnc2ccc(N[C@@H](c3ccc(F)cc3)c3cn(C4CC4)nn3)cc12 [I-2, (S)-N^6-((1-cyclopropyl-1H-1,2,3-triazol-4-yl)(4-fluorophenyl)methyl)-N^4-neopentylquinazoline-4,6-diamine]	7.7	85
[2H][C@](Nc1ccc2ncnc(NCC(C)(C)C)c2c1)(c1ccc(F)cc1)c1cn(C2CC2)nn1 [I-1, (S)-N^6-((1-cyclopropyl-1H-1,2,3-triazol-4-yl)(4-fluorophenyl)methyl-d)-N^4-neopentylquinazoline-4,6-diamine]	5	101
[2H][C@](Nc1ccc2ncnc(Nc3cnc(F)c(F)c3)c2c1)(c1ccc(F)cc1)c1cn(C2CC2)nn1 [II-11, (S)-N^6-((1-cyclopropyl-1H-1,2,3-triazol-4-yl)(4-fluorophenyl)methyl-d)-N^4-(5,6-difluoropyridin-3-yl)quinazoline-4,6-diamine]	74	645
